Data on six compounds can be found in US5112382A, “Halopropargyl compounds, compositions, uses and processes of preparation” (Rohm and Haas Company, priority 1990, dated 1992).

SMILES strings stand for the structures. ≈ marks a conversion by molar mass, not a printed value. Where two headings read alike, the source gives them in different places.

The test system of assay [1] is Pseudoperonospora cubensis. The experiment in a line: whole plant or invertebrate. The format is in vivo. Particulars: in Cucumis sativus, 168 h.
For assay [2], the system named is Pythium ultimum. Put plainly: In-vitro plant fungicide test, PYU. As to conditions: Globisporangium ultimum, read-out: % Control; for inhibition of growth at 25 ppm: rate 25 PPM; for inhibition of growth at 50 ppm: rate 50 PPM. The format is cell-based.
Assay [3] concerns Botrytis cinerea. Put plainly: In-vitro plant fungicide test, BOC. As to conditions: read-out: % Control.
Assay [4] has as its system Aspergillus niger. The experiment in a line: MIC, broth two-fold serial dilution test, Anig. In kind it is cell-based. As to conditions: read-out: Minimum Inhibitory Concentration (MIC). Here is the method: (§1) A minimum inhibitory concentration (MIC) value is obtained using a broth, two-fold serial dilution test performed as follows: […] A volume of the stock solution is dispensed into culture media to give an initial starting test concentration of 500 ppm compound. The test is carried out by adding and equal volume of broth to each vessel in the dilution series, except for the first vessel. The first vessel contains twice the volume of broth plus the initial concentration of test compound. One half of the broth from the first vessel is transferred to the second vessel. After being mixed, one half the resulting volume is removed from the second vessel and transferred to the third vessel. The entire cycle is repeated sufficiently to give a series of concentrations amounting to 500, 250, 125, 63, 31, 16, 8, and 4 ppm (or 100, 50, 25, 12.5, 6.2, 3.1, 1.6, and 0.8), respectively. Each vessel is then inoculated with a cell suspension of the appropriate test organism. Bacteria are grown in both and fungi on agar slats for a time and at a temperature appropriate to the species being tested. At the end of the growth period, the broth is vortexed to disperse the cells. In the case of fungi, the pores are harvested by pipetting water onto the slant and dislodging the spores with a sterile loop. The cell/spore suspension is standardized by controlling incubation time, temperature, and the volume of the diluent. The suspension is then used to inoculate the vessels containing the broth compound. The vessels are then incubated at the appropriate temperature. After the incubation, the vessels are examined for growth/no growth. The minimum inhibitory concentration (MIC) is defined as the lowest concentration of compound that results in complete inhibition of growth of the test organism.

In assay [5] the test system is Puccinia recondita (f. sp. tritici Races PKB and PLD). Put plainly: whole plant or invertebrate. The format is in vivo. Particulars: 240 h.
For assay [6], the system named is Pseudomonas aerugenosa. Put plainly: MIC, broth two-fold serial dilution test, Psae. The format is cell-based. As to conditions: read-out: Minimum Inhibitory Concentration (MIC). Here is the method: as §1
In assay [7] the test system is Pseudomonas fluorescens. Put plainly: MIC, broth two-fold serial dilution test, Psfl. The format is cell-based. As to conditions: read-out: Minimum Inhibitory Concentration (MIC). Here is the method: as §1
The test system of assay [8] is Rhizoctonia solani. Put plainly: In-vitro plant fungicide test, RHI. In kind it is cell-based. Particulars: read-out: % Control; for inhibition of growth at 25 ppm: rate 25 PPM; for inhibition of growth at 50 ppm: rate 50 PPM.
For assay [9], the system named is Phytophthora capsici. Put plainly: In-vitro plant fungicide test, PHY. In kind it is cell-based. As to conditions: read-out: % Control; for inhibition of growth at 25 ppm: rate 25 PPM; for inhibition of growth at 50 ppm: rate 50 PPM.
Assay [10] deals with Phytophthora infestans. The experiment in a line: whole plant or invertebrate. As to conditions: in Solanum lycopersicum, 96 h, read-out: % Control. The format is in vivo.
Assay [11] has as its system Piricularia oryzae. Put plainly: whole plant or invertebrate. Particulars: Pyricularia oryzae, 192 h, read-out: % Control. In kind it is in vivo.
Assay [12] deals with Xanthomonas campestris. The experiment in a line: In-vitro plant fungicide test, XAN. The format is cell-based. Particulars: read-out: % Control; for inhibition of growth at 25 ppm: rate 25 PPM.
Assay [13] deals with Staphylococcus aureus. Put plainly: MIC, broth two-fold serial dilution test, Saur. In kind it is cell-based. Particulars: read-out: Minimum Inhibitory Concentration (MIC). The procedure: as §1
For assay [14], the system named is Aureobasidium pullulans. Put plainly: MIC, broth two-fold serial dilution test, Apul. The format is cell-based. As to conditions: read-out: Minimum Inhibitory Concentration (MIC). Here is the method: as §1
The subject of assay [15] is Septoria nodorum. The experiment in a line: In-vitro plant fungicide test, SEP. In kind it is cell-based. As to conditions: Parastagonospora nodorum, rate 50 PPM, read-out: % Control.
The test system of assay [16] is Cochliobolus sativus. Put plainly: In-vitro plant fungicide test, HEL. Particulars: Bipolaris sorokiniana, read-out: % Control; for inhibition of growth at 25 ppm: rate 25 PPM; for inhibition of growth at 50 ppm: rate 50 PPM. The format is cell-based.
In assay [17] the test system is Escherichia coli. The experiment in a line: MIC, broth two-fold serial dilution test, Ecol. The format is cell-based. Particulars: read-out: Minimum Inhibitory Concentration (MIC). The procedure:
as §1

In assay [18] the test system is Piricularia oryzae. Put plainly: microbe, parasite or virus in culture. The format is cell-based. Particulars: read-out: % Control.
Assay [19] has as its system Fusarium roseum. Put plainly: microbe, parasite or virus in culture. As to conditions: Fusarium sambucinum, read-out: % Control.
Assay [20] has as its system Erysiphe graminis (f. sp. tritici). The experiment in a line: whole plant or invertebrate. In kind it is in vivo. Particulars: Blumeria graminis.
For assay [21], the system named is Septoria glume blotch of wheat. The experiment in a line: whole plant or invertebrate. The format is in vivo. As to conditions: Triticum aestivum.

Regarding `COC(=O)N(CC#CI)N=Cc1ccccc1` [Compound 3, N'-Methoxycarbonyl-N'-3-iodopropargyl benzaldehyde hyrazone], the pest or weed control at 200 ppm in [1] is 99%; in [5], 50%; in assay [10], 80%; in assay [11], 90%; in [20], 50%. In addition, the inhibition of growth at 25 ppm in [2] stood at 75%; in assay [3], 0%; in assay [8] it was 100%; in assay [9], 75%; in assay [12] (XAN) it was 0%; in assay [16] it was 0%. Further, the inhibition of growth at 25 ppm in assay [18] stood at 0%; in assay [19] it was 75%. The inhibition of growth at 50 ppm is 100% in assay [2]; 0% in assay [3]; 100% in assay [8]; 100% in assay [9]; 0% in assay [12] (XAN, rate 50 PPM); 75% in assay [15]. The inhibition of growth at 50 ppm in [16] came out at 0%; in assay [18] it was 95%; in [19] it was 100%. Also, the MIC was below 4 µg/mL in [4]; 250 µg/mL (≈ 731 µM) in [6]; above 500 µg/mL in assay [7]; 125 µg/mL (≈ 365 µM) in [13]; below 4 µg/mL in assay [14]; above 500 µg/mL in assay [17].
For the compound `COC(=O)N(CC#CI)N=Cc1ccc(C)cc1` [Compound 4, N'-Methoxycarbonyl-N'-3-iodopropargyl 4-methylbenzaldehyde hydrazone], the pest or weed control at 200 ppm in assay [1] amounted to 95%; in assay [5], 50%; in assay [21] it was 50%; in assay [10], 80%; in [11], 90%; in assay [20], 0%. For the same compound, the MIC in [4] is below 4 µg/mL; in [6], 125 µg/mL (≈ 351 µM); in assay [7], 125 µg/mL (≈ 351 µM); in assay [13] it was 16 µg/mL (≈ 44.9 µM); in assay [14], 8 µg/mL (≈ 22.5 µM); in assay [17] it was 250 µg/mL (≈ 702 µM).
Turning to `COC(=O)N(CC#CI)N=Cc1ccc(Cl)cc1` [Compound 5, N'-Methoxycarbonyl-N'-3-iodopropargyl 4-chlorobenzaldehyde hydrazone], the pest or weed control at 200 ppm in [1] was determined as 99%; in [5] it was 80%; in assay [21], 0%; in assay [10] it was 90%; in [11] it was 95%; in [20], 0%. In addition, the inhibition of growth at 25 ppm came to 50% in [2]; 0% in [3]; 75% in assay [8]; 50% in [9]; 0% in assay [12] (XAN); 100% in [16]. Also, the inhibition of growth at 25 ppm in assay [18] came to 100%; in [19] it was 95%. In addition, the MIC in [4] is below 4 µg/mL; in assay [6], 16 µg/mL (≈ 42.5 µM); in assay [7], 125 µg/mL (≈ 332 µM); in assay [13], 8 µg/mL (≈ 21.2 µM); in [14] it was below 4 µg/mL; in assay [17] it was 125 µg/mL (≈ 332 µM).
For the compound `COC(=O)N(CC#CI)N=Cc1ccc([N+](=O)[O-])o1` [Compound 8, N'-Methoxycarbonyl-N'-3-iodopropargyl 5-nitro-2-furancarboxaldehyde hydrazone], the pest or weed control at 200 ppm came to 0% in assay [1]; 0% in assay [5]; 0% in assay [21]; 0% in [10]; 90% in assay [11]; 0% in assay [20]. Further, the inhibition of growth at 50 ppm was 100% in assay [2]; 0% in [3]; 100% in assay [8]; 0% in assay [12]; 100% in assay [15]; 100% in assay [16]. For the same compound, the inhibition of growth at 50 ppm in assay [18] and in assay [19] was 100% throughout. For the same compound, the MIC was below 4 µg/mL in [4]; 125 µg/mL (≈ 331 µM) in [6]; 250 µg/mL (≈ 663 µM) in assay [7]; below 4 µg/mL in [13]; below 4 µg/mL in assay [14]; 63 µg/mL (≈ 167 µM) in assay [17].
On to `COC(=O)N(CC#CI)N=Cc1ccc(C#N)cc1` [Compound 9, N'-Methoxycarbonyl-N'-3-iodopropargyl 4-cyanobenzaldehyde hydrazone], for which the pest or weed control at 200 ppm was found to be 85% in assay [1]; 0% in assay [5]; 0% in assay [21]; 0% in assay [10]; 0% in assay [11]; 0% in assay [20]. Moreover, the inhibition of growth at 50 ppm is 100% in [2]; 50% in assay [3]; 100% in assay [8]; 95% in assay [9]; 0% in [12] (XAN, rate 50 PPM); 100% in assay [15]. Also, the inhibition of growth at 50 ppm in assay [16], in [18] and in assay [19] was 100% throughout. For the same compound, the MIC is above 250 µg/mL in assay [4]; above 500 µg/mL in assay [6]; above 500 µg/mL in assay [7]; above 500 µg/mL in assay [13]; above 500 µg/mL in assay [17].
With `COC(=O)N(CC#CI)N=Cc1ccc(Cl)c(Cl)c1` [Compound 11, N'-Methoxycarbonyl-N'-3-iodopropargyl 3,4-dichlorobenzaldehyde hydrazone], the pest or weed control at 200 ppm in assay [1] was determined as 95%; in [21], 0%; in assay [10], 80%; in assay [11] it was 90%; in [20], 0%. Besides, the inhibition of growth at 50 ppm in assay [2] was determined as 0%; in assay [3] it was 50%; in assay [8], 100%; in assay [9], 90%; in assay [12] (XAN, rate 50 PPM), 0%; in assay [15] it was 90%. In addition, the inhibition of growth at 50 ppm in assay [16], in assay [18] and in assay [19] was 100% throughout. For the same compound, the MIC is below 4 µg/mL in [4]; above 500 µg/mL in assay [6]; above 500 µg/mL in assay [7]; 8 µg/mL (≈ 19.5 µM) in assay [13]; below 4 µg/mL in assay [14]; above 500 µg/mL in assay [17].
